{"source": "patent US20230085307A1", "about": "“PYRIDAZINONE COMPOUND AND HERBICIDE” (NISSAN CHEMICAL CORPORATION, priority 2019, published 2023)", "key": {"barnyard grass [1]": {"tested_on": "barnyard grass", "assay": "Test Example 4: herbicidal effect by soil treatment (Table 19, symbol H)", "format": "in vivo, barnyard grass (Echinochloa crus-galli)", "conditions": "AAH 320 g/ha", "method_in_brief": "(§1)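 Emulsion of test compound, water-diluted to predetermined amount, sprayed on soil after sowing (seed depth ~1.5 cm, sterilized diluvial soil). Greenhouse, 25–30° C. Effect graded at three weeks post-spray.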"}, "wild oat [2]": {"tested_on": "wild oat", "assay": "Test Example 4: herbicidal effect by soil treatment (Table 19, symbol I)", "format": "in vivo, wild oat (Avena fatua)", "conditions": "AAH 320 g/ha", "method_in_brief": "as §1"}, "green foxtail": {"tested_on": "green foxtail", "assay": "Test Example 5: herbicidal effect by foliage application, plastic box (Table 20, symbol G)", "format": "in vivo, green foxtail (Setaria viridis)", "conditions": "foliage application, 320 g/ha, 3 weeks after application", "method_in_brief": "(§2)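 Post-emergence foliar test in sterilized diluvial soil. Compound applied as water-diluted emulsion at a predetermined rate to 14-day-old plants; evaluation at three weeks.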"}, "persian speedwell [3]": {"tested_on": "persian speedwell", "assay": "Test Example 4: herbicidal effect by soil treatment (Table 19, symbol R)", "format": "in vivo, Persian speedwell (Veronica persica)", "conditions": "AAH 320 g/ha", "method_in_brief": "as §1"}, "southern crabgrass [4]": {"tested_on": "southern crabgrass", "assay": "Test Example 5: herbicidal effect by foliage application, plastic box (Table 20, symbol F)", "format": "in vivo, southern crabgrass (Digitaria ciliaris)", "conditions": "foliage application, 320 g/ha, 3 weeks after application", "method_in_brief": "as §2"}, "lambsquarters [5]": {"tested_on": "lambsquarters", "assay": "Test Example 5: herbicidal effect by foliage application, plastic box (Table 20, symbol O)", "format": "in vivo, lambsquarters (Chenopodium album)", "conditions": "foliage application, 320 g/ha, 3 weeks after application", "method_in_brief": "as §2"}, "redroot pigweed": {"tested_on": "redroot pigweed", "assay": "Test Example 4: herbicidal effect by soil treatment (Table 19, symbol N)", "format": "in vivo, redroot pigweed (Amaranthus retroflexus)", "conditions": "AAH 320 g/ha", "method_in_brief": "as §1"}, "windgrass [6]": {"tested_on": "windgrass", "assay": "Test Example 5: herbicidal effect by foliage application, plastic box (Table 20, symbol L)", "format": "in vivo, windgrass (Apera spica-venti)", "conditions": "foliage application, 320 g/ha, 3 weeks after application", "method_in_brief": "as §2"}, "lambsquarters [7]": {"tested_on": "lambsquarters", "assay": "Test Example 4: herbicidal effect by soil treatment (Table 19, symbol O)", "format": "in vivo, lambsquarters (Chenopodium album)", "conditions": "AAH 320 g/ha", "method_in_brief": "as §1"}, "Italian ryegrass [8]": {"tested_on": "Italian ryegrass", "assay": "Test Example 5: herbicidal effect by foliage application, plastic box (Table 20, symbol K)", "format": "in vivo, Italian ryegrass (Lolium multiflorum)", "conditions": "foliage application, 320 g/ha, 3 weeks after application", "method_in_brief": "as §2"}, "blackgrass [9]": {"tested_on": "blackgrass", "assay": "Test Example 4: herbicidal effect by soil treatment (Table 19, symbol J)", "format": "in vivo, blackgrass (Alopecurus myosuroides)", "conditions": "AAH 320 g/ha", "method_in_brief": "as §1"}, "wild oat [10]": {"tested_on": "wild oat", "assay": "Test Example 5: herbicidal effect by foliage application, plastic box (Table 20, symbol I)", "format": "in vivo, wild oat (Avena fatua)", "conditions": "foliage application, 320 g/ha, 3 weeks after application", "method_in_brief": "as §2"}, "barnyard grass [11]": {"tested_on": "barnyard grass", "assay": "Test Example 5: herbicidal effect by foliage application, plastic box (Table 20, symbol H)", "format": "in vivo, barnyard grass (Echinochloa crus-galli)", "conditions": "foliage application, 320 g/ha, 3 weeks after application", "method_in_brief": "as §2"}, "false cleavers [12]": {"tested_on": "false cleavers", "assay": "Test Example 4: herbicidal effect by soil treatment (Table 19, symbol Q)", "format": "in vivo, false cleavers (Galium spurium)", "conditions": "AAH 320 g/ha", "method_in_brief": "as §1"}, "velvetleaf [13]": {"tested_on": "velvetleaf", "assay": "Test Example 4: herbicidal effect by soil treatment (Table 19, symbol M)", "format": "in vivo, velvetleaf (Abutilon theophrasti)", "conditions": "AAH 320 g/ha", "method_in_brief": "as §1"}, "Italian ryegrass [14]": {"tested_on": "Italian ryegrass", "assay": "Test Example 4: herbicidal effect by soil treatment (Table 19, symbol K)", "format": "in vivo, Italian ryegrass (Lolium multiflorum)", "conditions": "AAH 320 g/ha", "method_in_brief": "as §1"}, "false cleavers [15]": {"tested_on": "false cleavers", "assay": "Test Example 5: herbicidal effect by foliage application, plastic box (Table 20, symbol Q)", "format": "in vivo, false cleavers (Galium spurium)", "conditions": "foliage application, 320 g/ha, 3 weeks after application", "method_in_brief": "as §2"}, "persian speedwell [16]": {"tested_on": "persian speedwell", "assay": "Test Example 5: herbicidal effect by foliage application, plastic box (Table 20, symbol R)", "format": "in vivo, Persian speedwell (Veronica persica)", "conditions": "foliage application, 320 g/ha, 3 weeks after application", "method_in_brief": "as §2"}, "chickweed": {"tested_on": "chickweed", "assay": "Test Example 4: herbicidal effect by soil treatment (Table 19, symbol P)", "format": "in vivo, common chickweed (Stellaria media)", "conditions": "AAH 320 g/ha", "method_in_brief": "as §1"}, "windgrass [17]": {"tested_on": "windgrass", "assay": "Test Example 4: herbicidal effect by soil treatment (Table 19, symbol L)", "format": "in vivo, windgrass (Apera spica-venti)", "conditions": "AAH 320 g/ha", "method_in_brief": "as §1"}, "Chinese sprangletop": {"tested_on": "Chinese sprangletop", "assay": "Test Example 3: herbicidal effect by foliage application, Wagner pot (Table 18, symbol D)", "format": "in vivo, chinese sprangletop (Leptochloa chinensis)", "conditions": "320 g/ha", "method_in_brief": "(§3)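 Plants were sown in alluvial soil held under 0.1–0.5 cm standing water and grown 14 days in a greenhouse at 25–30 °C. An emulsifiable formulation, water-diluted to the set dose, was then sprayed onto the foliage, and effects were scored three weeks later using previously defined criteria.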"}, "blackgrass [18]": {"tested_on": "blackgrass", "assay": "Test Example 5: herbicidal effect by foliage application, plastic box (Table 20, symbol J)", "format": "in vivo, blackgrass (Alopecurus myosuroides)", "conditions": "foliage application, 320 g/ha, 3 weeks after application", "method_in_brief": "as §2"}, "barnyard grass [19]": {"tested_on": "barnyard grass", "assay": "Test Example 3: herbicidal effect by foliage application, Wagner pot (Table 18, symbol H)", "format": "in vivo, barnyard grass (Echinochloa crus-galli)", "conditions": "320 g/ha", "method_in_brief": "as §3"}, "rice flat sedge": {"tested_on": "rice flat sedge", "assay": "Test Example 3: herbicidal effect by foliage application, Wagner pot (Table 18, symbol E)", "format": "in vivo, rice flat sedge (Cyperus iria)", "conditions": "320 g/ha", "method_in_brief": "as §3"}, "velvetleaf [20]": {"tested_on": "velvetleaf", "assay": "Test Example 5: herbicidal effect by foliage application, plastic box (Table 20, symbol M)", "format": "in vivo, velvetleaf (Abutilon theophrasti)", "conditions": "foliage application, 320 g/ha, 3 weeks after application", "method_in_brief": "as §2"}, "southern crabgrass [21]": {"tested_on": "southern crabgrass", "assay": "Test Example 4: herbicidal effect by soil treatment (Table 19, symbol F)", "format": "in vivo, southern crabgrass (Digitaria ciliaris)", "conditions": "AAH 320 g/ha", "method_in_brief": "as §1"}}}
{"molecule": "CCCC(=O)Oc1c(OC)nn(C)c(=O)c1-c1c(-c2ccc3c(c2)OCCO3)sc2ccccc12", "note": "[1-199]", "values": [{"measurement": "H: barnyard grass, herbicidal effect rating", "setting": "barnyard grass [1]", "result": "2 (Herbicidal rate of 20% or more and less than 40%)"}, {"measurement": "I: wild oat, herbicidal effect rating", "setting": "wild oat [2]", "result": "0 (Herbicidal rate of 5% or less (almost no effect))"}, {"measurement": "effect on green foxtail (G)", "setting": "green foxtail", "result": "0 (Herbicidal rate of 5% or less (almost no effect))"}, {"measurement": "R: persian speedwell, herbicidal effect rating", "setting": "persian speedwell [3]", "result": "5 (Herbicidal rate of 90% or more (almost completely withered))"}, {"measurement": "effect on southern crabgrass (F)", "setting": "southern crabgrass [4]", "result": "0 (Herbicidal rate of 5% or less (almost no effect))"}, {"measurement": "effect on lambsquarters (O)", "setting": "lambsquarters [5]", "result": "0 (Herbicidal rate of 5% or less (almost no effect))"}, {"measurement": "N: redroot pigweed, herbicidal effect rating", "setting": "redroot pigweed", "result": "0 (Herbicidal rate of 5% or less (almost no effect))"}, {"measurement": "effect on windgrass (L)", "setting": "windgrass [6]", "result": "0 (Herbicidal rate of 5% or less (almost no effect))"}, {"measurement": "O: lambsquarters, herbicidal effect rating", "setting": "lambsquarters [7]", "result": "3 (Herbicidal rate of 40% or more and less than 70%)"}, {"measurement": "effect on Italian ryegrass (K)", "setting": "Italian ryegrass [8]", "result": "0 (Herbicidal rate of 5% or less (almost no effect))"}, {"measurement": "J: blackgrass, herbicidal effect rating", "setting": "blackgrass [9]", "result": "0 (Herbicidal rate of 5% or less (almost no effect))"}, {"measurement": "effect on wild oat (I)", "setting": "wild oat [10]", "result": "0 (Herbicidal rate of 5% or less (almost no effect))"}, {"measurement": "effect on barnyard grass (H)", "setting": "barnyard grass [11]", "result": "0 (Herbicidal rate of 5% or less (almost no effect))"}, {"measurement": "Q: false cleavers, herbicidal effect rating", "setting": "false cleavers [12]", "result": "0 (Herbicidal rate of 5% or less (almost no effect))"}, {"measurement": "M: velvetleaf, herbicidal effect rating", "setting": "velvetleaf [13]", "result": "0 (Herbicidal rate of 5% or less (almost no effect))"}, {"measurement": "K: Italian ryegrass, herbicidal effect rating", "setting": "Italian ryegrass [14]", "result": "0 (Herbicidal rate of 5% or less (almost no effect))"}, {"measurement": "effect on false cleavers (Q)", "setting": "false cleavers [15]", "result": "0 (Herbicidal rate of 5% or less (almost no effect))"}, {"measurement": "effect on persian speedwell (R)", "setting": "persian speedwell [16]", "result": "4 (Herbicidal rate of 70% or more and less than 90%)"}, {"measurement": "P: chickweed, herbicidal effect rating", "setting": "chickweed", "result": "4 (Herbicidal rate of 70% or more and less than 90%)"}, {"measurement": "L: windgrass, herbicidal effect rating", "setting": "windgrass [17]", "result": "0 (Herbicidal rate of 5% or less (almost no effect))"}, {"measurement": "herbicidal effect on D (Chinese sprangletop), rating 0-5", "setting": "Chinese sprangletop", "result": "0 (Herbicidal rate of 5% or less (almost no effect))"}, {"measurement": "effect on blackgrass (J)", "setting": "blackgrass [18]", "result": "0 (Herbicidal rate of 5% or less (almost no effect))"}, {"measurement": "herbicidal effect on H (barnyard grass), rating 0-5", "setting": "barnyard grass [19]", "result": "0 (Herbicidal rate of 5% or less (almost no effect))"}, {"measurement": "herbicidal effect on E (rice flat sedge), rating 0-5", "setting": "rice flat sedge", "result": "5 (Herbicidal rate of 90% or more (almost completely withered))"}, {"measurement": "effect on velvetleaf (M)", "setting": "velvetleaf [20]", "result": "0 (Herbicidal rate of 5% or less (almost no effect))"}, {"measurement": "F: southern crabgrass, herbicidal effect rating", "setting": "southern crabgrass [21]", "result": "1 (Herbicidal rate of 5% or more and less than 20%)"}]}
